Experimental data from PubChem BioAssay (NCI).
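Step 1: Grow cells in 96-well plates. Step 2: Expose to compound for 48 hours at 5 concentrations. Step 3: Interpolate endpoints linearly; if unreached, use highest concentration. At the TGI there is no net growth.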

Columns and labels:
Assay in all cases: NCI-60 cell line screen, 48 h
786-0 renal = tested on: 786-0 renal
UACC-62 melanoma = tested on: UACC-62 melanoma
SR leukemia = tested on: SR leukemia
U251 CNS = tested on: U251 CNS
IGROV1 ovarian = tested on: IGROV1 ovarian
M19-MEL melanoma = tested on: M19-MEL melanoma
HCC-2998 colon = tested on: HCC-2998 colon
UO-31 renal = tested on: UO-31 renal
SK-OV-3 ovarian = tested on: SK-OV-3 ovarian
COLO 205 colon = tested on: COLO 205 colon
LXFL 529 NSCLC = tested on: LXFL 529 NSCLC
KM12 colon = tested on: KM12 colon
MOLT-4 leukemia = tested on: MOLT-4 leukemia
SN12C renal = tested on: SN12C renal
NCI-H460 lung = tested on: NCI-H460 lung
HL-60(TB) leukemia = tested on: HL-60(TB) leukemia
KM20L2 colon = tested on: KM20L2 colon
OVCAR-3 ovarian = tested on: OVCAR-3 ovarian
CAKI-1 renal = tested on: CAKI-1 renal
LOX IMVI melanoma = tested on: LOX IMVI melanoma
SW-620 colon = tested on: SW-620 colon
DMS 273 small cell lung = tested on: DMS 273 small cell lung
SNB-78 CNS = tested on: SNB-78 CNS
DLD-1 colon = tested on: DLD-1 colon
TK-10 renal = tested on: TK-10 renal
HOP-62 NSCLC = tested on: HOP-62 NSCLC
M14 melanoma = tested on: M14 melanoma
HOP-18 NSCLC = tested on: HOP-18 NSCLC
A498 renal = tested on: A498 renal
OVCAR-5 ovarian = tested on: OVCAR-5 ovarian
SK-MEL-2 melanoma = tested on: SK-MEL-2 melanoma
EKVX NSCLC = tested on: EKVX NSCLC
XF 498 CNS = tested on: XF 498 CNS
SK-MEL-5 melanoma = tested on: SK-MEL-5 melanoma
ACHN renal = tested on: ACHN renal
HT29 colon = tested on: HT29 colon
MALME-3M melanoma = tested on: MALME-3M melanoma
CCRF-CEM leukemia = tested on: CCRF-CEM leukemia
HOP-92 NSCLC = tested on: HOP-92 NSCLC
OVCAR-8 ovarian = tested on: OVCAR-8 ovarian
K-562 leukemia = tested on: K-562 leukemia
NCI-H226 lung = tested on: NCI-H226 lung
SNB-75 CNS = tested on: SNB-75 CNS
UACC-257 melanoma = tested on: UACC-257 melanoma
OVCAR-4 ovarian = tested on: OVCAR-4 ovarian
RPMI-8226 leukemia = tested on: RPMI-8226 leukemia
HCT-15 colon = tested on: HCT-15 colon
NCI-H23 lung = tested on: NCI-H23 lung
SF-295 CNS = tested on: SF-295 CNS
PC-3 prostate = tested on: PC-3 prostate
SK-MEL-28 melanoma = tested on: SK-MEL-28 melanoma
HCT-116 colon = tested on: HCT-116 colon
HS 578T breast = tested on: HS 578T breast
T-47D breast = tested on: T-47D breast
MCF7 breast = tested on: MCF7 breast
NCI/ADR-RES ovarian = tested on: NCI/ADR-RES ovarian
SNB-19 CNS = tested on: SNB-19 CNS
MDA-N = tested on: MDA-N
SF-539 CNS = tested on: SF-539 CNS
SF-268 CNS = tested on: SF-268 CNS
MDA-MB-435 = tested on: MDA-MB-435
RXF 393 renal = tested on: RXF 393 renal
MDA-MB-231 breast = tested on: MDA-MB-231 breast
BT-549 breast = tested on: BT-549 breast
DU-145 prostate = tested on: DU-145 prostate
NCI-H522 lung = tested on: NCI-H522 lung
A549 NSCLC = tested on: A549 NSCLC

COC(=O)C1[C@H](c2ccc3c(c2)OCO3)OC(=O)[C@]1(C(=O)OC)C(=O)c1ccc(OC)c(OC)c1 (stereo partly drawn)
TGI (786-0 renal): > 100 µM
TGI (UACC-62 melanoma): > 100 µM
TGI (SR leukemia): > 100 µM
TGI (U251 CNS): > 100 µM
TGI (IGROV1 ovarian): > 100 µM
TGI (M19-MEL melanoma): > 100 µM
TGI (HCC-2998 colon): > 100 µM
TGI (UO-31 renal): > 100 µM
TGI (SK-OV-3 ovarian): > 100 µM
TGI (COLO 205 colon): > 100 µM
TGI (LXFL 529 NSCLC): > 100 µM
TGI (KM12 colon): > 100 µM
TGI (MOLT-4 leukemia): 87.2 µM
TGI (SN12C renal): > 100 µM
TGI (NCI-H460 lung): > 100 µM
TGI (HL-60(TB) leukemia): 55.2 µM
TGI (KM20L2 colon): > 100 µM
TGI (OVCAR-3 ovarian): > 100 µM
TGI (CAKI-1 renal): > 100 µM
TGI (LOX IMVI melanoma): 36.1 µM
TGI (SW-620 colon): > 100 µM
TGI (DMS 273 small cell lung): 71.6 µM
TGI (SNB-78 CNS): > 100 µM
TGI (DLD-1 colon): 40.1 µM
TGI (TK-10 renal): > 100 µM
TGI (HOP-62 NSCLC): > 100 µM
TGI (M14 melanoma): > 100 µM
TGI (HOP-18 NSCLC): > 100 µM
TGI (A498 renal): > 100 µM
TGI (OVCAR-5 ovarian): > 100 µM
TGI (SK-MEL-2 melanoma): 79.9 µM
TGI (EKVX NSCLC): > 100 µM
TGI (XF 498 CNS): > 100 µM
TGI (SK-MEL-5 melanoma): > 100 µM
TGI (ACHN renal): > 100 µM
TGI (HT29 colon): > 100 µM
TGI (MALME-3M melanoma): > 100 µM
TGI (CCRF-CEM leukemia): > 100 µM
TGI (HOP-92 NSCLC): > 100 µM
TGI (OVCAR-8 ovarian): > 100 µM
TGI (K-562 leukemia): > 100 µM
TGI (NCI-H226 lung): > 100 µM
TGI (SNB-75 CNS): > 100 µM
TGI (UACC-257 melanoma): > 100 µM
TGI (OVCAR-4 ovarian): > 100 µM
TGI (RPMI-8226 leukemia): > 100 µM
TGI (HCT-15 colon): > 100 µM
TGI (NCI-H23 lung): > 100 µM
TGI (SF-295 CNS): > 100 µM

CC1(C)CCC(C)(C)c2cc(NC(=O)c3ccc(C(=O)O)cc3)ccc21
TGI (PC-3 prostate): > 70.6 µM
TGI (SK-MEL-28 melanoma): > 82.2 µM
TGI (786-0 renal): > 85.4 µM
TGI (UACC-62 melanoma): 39.4 µM
TGI (SR leukemia): > 100 µM
TGI (HCT-116 colon): 55.7 µM
TGI (U251 CNS): > 62.5 µM
TGI (HS 578T breast): > 83.5 µM
TGI (T-47D breast): > 100 µM
TGI (IGROV1 ovarian): > 75.6 µM
TGI (HCC-2998 colon): > 60 µM
TGI (UO-31 renal): 39.5 µM
TGI (SK-OV-3 ovarian): > 100 µM
TGI (COLO 205 colon): > 55.9 µM
TGI (MCF7 breast): > 83.2 µM
TGI (NCI/ADR-RES ovarian): > 86.1 µM
TGI (KM12 colon): 59.5 µM
TGI (MOLT-4 leukemia): > 100 µM
TGI (SN12C renal): 93 µM
TGI (NCI-H460 lung): > 62.7 µM
TGI (HL-60(TB) leukemia): > 100 µM
TGI (OVCAR-3 ovarian): > 57.9 µM
TGI (CAKI-1 renal): 98.6 µM
TGI (LOX IMVI melanoma): 48.3 µM
TGI (SW-620 colon): > 100 µM
TGI (SNB-19 CNS): 99.3 µM
TGI (TK-10 renal): 85.3 µM
TGI (MDA-N): > 100 µM
TGI (HOP-62 NSCLC): > 57.6 µM
TGI (M14 melanoma): > 65.1 µM
TGI (SF-539 CNS): > 51 µM
TGI (A498 renal): 85.1 µM
TGI (OVCAR-5 ovarian): > 95.2 µM
TGI (SK-MEL-2 melanoma): > 60.5 µM
TGI (EKVX NSCLC): > 100 µM
TGI (SF-268 CNS): > 100 µM
TGI (SK-MEL-5 melanoma): > 93.2 µM
TGI (ACHN renal): > 100 µM
TGI (HT29 colon): > 95 µM
TGI (MALME-3M melanoma): 60.1 µM
TGI (CCRF-CEM leukemia): > 31.6 µM
TGI (HOP-92 NSCLC): 64.1 µM
TGI (MDA-MB-435): > 77.8 µM
TGI (OVCAR-8 ovarian): > 100 µM
TGI (K-562 leukemia): > 100 µM
TGI (NCI-H226 lung): > 79.5 µM
TGI (SNB-75 CNS): > 100 µM
TGI (UACC-257 melanoma): > 100 µM
TGI (OVCAR-4 ovarian): > 100 µM
TGI (RXF 393 renal): > 79.9 µM
TGI (MDA-MB-231 breast): > 90.5 µM
TGI (RPMI-8226 leukemia): > 100 µM
TGI (HCT-15 colon): > 64 µM
TGI (BT-549 breast): 68.1 µM
TGI (DU-145 prostate): > 100 µM
TGI (NCI-H23 lung): 53.9 µM
TGI (NCI-H522 lung): > 89.3 µM
TGI (SF-295 CNS): 68.2 µM
TGI (A549 NSCLC): > 100 µM
